Measured values reported in ChEMBL document CHEMBL3885861, “Open TG-GATES”.

Species on record: Rattus norvegicus
Experiment: Open TG-GATES - Regimen: Daily Repeat
Type: toxicity, organism-based, Sprague-Dawley
Parameters: regimen Daily Repeat, gender Male, age 6 weeks
Settings: in vivo, po, 0 mg/kg, […], route gavage, dose level Control; for KIDNEY_L / KIDNEY_R / KIDNEY_TOTAL: tissue Kidney; for LIVER: tissue Liver; for A/G / ALP / ALT / AST / BUN / CRE / Ca / Cl / DBIL / GLC / IP / K / LDH / Na / PL / RALB / TBIL / TC / TG / TP / gamma-GTP: tissue Plasma

NC1=NC(=O)C(c2ccccc2)O1 (stereo unspecified) [PEMOLINE]
Lym (tissue Blood, time 28 day): 82.2% | MCH (tissue Blood, time 28 day): 20.2 pg | MCHC (tissue Blood, time 28 day): 35.7% | MCV (tissue Blood, time 28 day): 56.5 fL | Mono (tissue Blood, time 28 day): 2.6% | Neu (tissue Blood, time 28 day): 12.6% | PT (tissue Blood, time 28 day): 12.2 s | Plat (tissue Blood, time 28 day): 108.5 x10_4/uL | RBC (tissue Blood, time 28 day): 749.2 x10_4/ul | Ret (tissue Blood, time 28 day): 2.8% | WBC (tissue Blood, time 28 day): 121.3 x10_2/uL | KIDNEY_L (time 7 day): 1.1 g | KIDNEY_R (time 7 day): 1.1 g | KIDNEY_TOTAL (time 7 day): 2.2 g | KIDNEY_L (time 14 day): 1.3 g | KIDNEY_R (time 14 day): 1.3 g | KIDNEY_TOTAL (time 14 day): 2.6 g | KIDNEY_L (time 28 day): 1.4 g | KIDNEY_R (time 28 day): 1.4 g | KIDNEY_TOTAL (time 28 day): 2.9 g | LIVER (time 7 day): 13.2 g | LIVER (time 14 day): 14.4 g | LIVER (time 28 day): 18.9 g | A/G (time 7 day): 0.9 | ALP (time 7 day): 1625.6 IU/L | ALT (time 7 day): 41.4 IU/L | AST (time 7 day): 68 IU/L | BUN (time 7 day): 15.4 mg/dL | CRE (time 7 day): 0.2 mg/dL | Ca (time 7 day): 10.6 mg/dL | Cl (time 7 day): 104.4 meq/L | DBIL (time 7 day): 0.022 mg/dL | GLC (time 7 day): 184 mg/dL | IP (time 7 day): 7.2 mg/dL | K (time 7 day): 3.8 meq/L | LDH (time 7 day): 80.2 IU/L | Na (time 7 day): 142 meq/L | PL (time 7 day): 160.8 mg/dL | RALB (time 7 day): 2.7 g/dL | TBIL (time 7 day): 0.028 mg/dL | TC (time 7 day): 84.2 mg/dL | TG (time 7 day): 131.8 mg/dL | TP (time 7 day): 5.8 g/dL | gamma-GTP (time 7 day): 1 IU/L | A/G (time 14 day): 0.8 | ALP (time 14 day): 1289.6 IU/L | ALT (time 14 day): 46.2 IU/L | AST (time 14 day): 71.8 IU/L | BUN (time 14 day): 15.2 mg/dL | CRE (time 14 day): 0.2 mg/dL | Ca (time 14 day): 11.2 mg/dL | Cl (time 14 day): 105.4 meq/L | DBIL (time 14 day): 0.012 mg/dL | GLC (time 14 day): 180.2 mg/dL | IP (time 14 day): 8.3 mg/dL | K (time 14 day): 3.6 meq/L | LDH (time 14 day): 66.8 IU/L | Na (time 14 day): 144.6 meq/L | PL (time 14 day): 144.6 mg/dL | RALB (time 14 day): 2.7 g/dL | TBIL (time 14 day): 0.018 mg/dL | TC (time 14 day): 78.8 mg/dL | TG (time 14 day): 88.2 mg/dL | TP (time 14 day): 6 g/dL | gamma-GTP (time 14 day): 1 IU/L | A/G (time 28 day): 0.8 | ALP (time 28 day): 980.4 IU/L | ALT (time 28 day): 41.2 IU/L | AST (time 28 day): 61.6 IU/L | BUN (time 28 day): 16.6 mg/dL | CRE (time 28 day): 0.2 mg/dL | Ca (time 28 day): 11.4 mg/dL | Cl (time 28 day): 104 meq/L | DBIL (time 28 day): 0.018 mg/dL | GLC (time 28 day): 182.2 mg/dL | IP (time 28 day): 6.9 mg/dL | K (time 28 day): 3.7 meq/L | LDH (time 28 day): 68.8 IU/L | Na (time 28 day): 143 meq/L | PL (time 28 day): 160.2 mg/dL | RALB (time 28 day): 2.8 g/dL | TBIL (time 28 day): 0.022 mg/dL | TC (time 28 day): 77.4 mg/dL | TG (time 28 day): 215 mg/dL | TP (time 28 day): 6.3 g/dL | gamma-GTP (time 28 day): 1 IU/L
